Experimental data reported in patent publication US8357635B2, “Microbiocides” (Syngenta Crop Protection LLC, priority 2009, dated 2013).
Several values for one entry are separate records, joined by “and”; a condition that tells them apart may be missing. Equal values may be shown once.

Tests used:
[1] = tested on: Botrytis cinerea; test: Action against Botrytis cinerea - fungal growth assay; format: cell-based; settings: 0.002% active ingredient, PDB broth, 24° C., photometric after 3-4 days
Method: (§1) Conidia of the fungus from cryogenic storage was directly mixed into nutrient broth (PDB potato dextrose broth). After placing a (DMSO) solution of the test compounds (0.002% active ingredient) into a microtiter plate (96-well format) the nutrient broth containing the fungal spores was added. The test plates were incubated at 24° C. and the inhibition of growth was measured photometrically after 3-4 days. The activity of a compound was expressed as fungal growth inhibition (0=no growth inhibition, ratings of 80% to 99% mean good to very good inhibition, 100%=complete inhibition).

[2] = tested on: Mycosphaerella arachidis (Cercospora arachidicola); test: Action against Mycosphaerella arachidis (early leaf spot of groundnut) - fungal growth assay; format: cell-based; settings: 0.002% active ingredient, PDB broth, 24° C., photometric after 6-7 days
Method: as §1, with “storage were” for “storage was”, “after 6-7” for “after 3-4”

[3] = tested on: Septoria tritici; test: Action against Septoria tritici - fungal growth assay; format: cell-based; settings: Zymoseptoria tritici; 0.002% active ingredient, PDB broth, 24° C., photometric after 72 hrs
Method: as §1, with “storage were” for “storage was”, “was determined” for “was measured”, “after 72 hrs.” for “after 3-4 days.”

[4] = tested on: Monographella nivalis (Fusarium nivale, Microdochium nivale); test: Action against Monographella nivalis (snow mould) - fungal growth assay; format: cell-based; settings: 0.002% active ingredient, PDB broth, 24° C., photometric after 72 hrs
Method: as §1, with “storage were” for “storage was”, “a DMSO-solution” for “a (DMSO) solution”, “after 72 hrs” for “after 3-4 days. The activity of a compound was expressed as fungal growth inhibition”

[5] = tested on: Erysiphe graminis f.sp. tritici; test: Action against Erysiphe graminis f.sp. tritici (wheat powdery mildew), wheat leaf segments; format: in vivo; settings: Blumeria graminis, foliar, 168 h; 0.02% active ingredient sprayed on wheat leaf segments, assessed 7 days after inoculation; read-out: preventive fungicidal activity (inhibition)
Method: (§2) Wheat leaf segments were placed on agar in multiwell plates (24-well format) and sprayed with test solutions (0.02% active ingredient). After drying, the leaf disks were inoculated with a spore suspension of the fungus. After appropriate incubation the activity of a compound was assessed 7 days after inoculation as preventive fungicidal activity.

[6] = tested on: Puccinia recondita; test: Protective action against Puccinia recondita (brown rust) on wheat leaf segments; format: in vivo; settings: foliar, 192 h, 0.02% active ingredient sprayed on wheat leaf segments, assessed 8 days after inoculation, read-out: preventive fungicidal activity (inhibition)
Method: as §2, with “8” for “7”

[7] = tested on: Pyrenophora teres; test: Action against Pyrenophora teres (net blotch) on barley leaf segments; format: in vivo; settings: foliar, 96 h, 0.02% active ingredient sprayed on barley leaf segments, assessed 4 days after inoculation, read-out: preventive fungicidal activity (inhibition)
Method: as §2, with “Barley” for “Wheat”, “4” for “7”

[8] = tested on: Puccinia recondita; test: Curative action against Puccinia recondita (brown rust) on wheat leaf segments; format: in vivo; settings: foliar, 0.02% active ingredient sprayed one day after inoculation on wheat leaf segments, assessed 8 days after inoculation, read-out: curative fungicidal activity (inhibition)
Method: Wheat leaf segments were placed on agar in multiwell plates (24-well format) and inoculated with a spore suspension of the fungus. One day after inoculation the leaf segments were sprayed with test solutions (0.02% active ingredient). After appropriate incubation the activity of a compound was assessed 8 days after inoculation as curative fungicidal activity.

[9] = tested on: Rhizoctonia solani; test: Action against Rhizoctonia solani - fungal growth assay; format: cell-based; settings: 0.002% active ingredient, PDB broth, 24° C., photometric after 3-4 days
Method: as §1, with “Mycelial fragments of a newly grown liquid culture” for “Conidia”, “were” for “from cryogenic storage was”

| melting point | Compound | inhibition at 0.002 % strength [1] | inhibition at 0.002 % strength [2] | inhibition at 0.002 % strength [3] | inhibition at 0.002 % strength [4] | inhibition at 0.02 % strength [5] | inhibition at 0.02 % strength [6] | inhibition at 0.02 % strength [7] | inhibition at 0.02 % strength [8] | inhibition at 0.002 % strength [9] |
| --- | --- | --- | --- | --- | --- | --- | --- | --- | --- | --- |
| – | CON(C(=O)c1cn(C)nc1C(F)F)C(C)C1CC1c1ccccc1Cl (stereo not drawn) [Compound 1.011A, trans 3-difluoromethyl-1-methyl-1H-pyrazole-4-carboxylic acid {1-[2-(2-chloro-phenyl)-cyclopropyl]-ethyl}-methoxy-amide] | ≥ 80% | ≥ 80% | ≥ 80% | ≥ 80% | ≥ 80% | ≥ 80% | ≥ 80% | – | – |
| – | CON(C(=O)c1cn(C)nc1C(F)F)C(C)C1CC1c1ccc(Cl)cc1Cl (stereo not drawn) [Compound 1.018B, trans-3-difluoromethyl-1-methyl-1H-pyrazole-4-carboxylic acid {1-[2-(2,4-dichlorophenyl)-cyclopropyl]-ethyl}-methoxy-amide] | – | – | – | – | – | – | – | ≥ 80% | – |
| 133 to 135 °C | CON(C(=O)c1cn(C)nc1C(F)F)C(C)C1CC1c1ccc(Cl)cc1Cl (single isomer, unassigned) [Compound 1.018A, trans-3-difluoromethyl-1-methyl-1H-pyrazole-4-carboxylic acid {1-[2-(2,4-dichlorophenyl)-cyclopropyl]-ethyl}-methoxy-amide] | – | – | – | – | – | – | – | – | – |
| 110 to 113 °C and 110 to 130 °C | CON(C(=O)c1cn(C)nc1C(F)F)C(C)[C@@H]1C[C@H]1c1c(Cl)sc(Cl)c1Cl (relative stereo) [Compound 1.063, trans 3-Difluoromethyl-1-methyl-1H-pyrazole-4-carboxylic acid methoxy-{1-[2-(2,4,5-trichloro-thiophen-3-yl)-cyclopropyl]-ethyl}-amide] | – | – | – | – | – | – | – | – | – |
| – | CON(C(=O)c1cn(C)nc1C(F)F)C(C)C1CC1c1c(Cl)cc(Cl)cc1Cl (stereo not drawn) [Compound 1.034, trans-3-difluoromethyl-1-methyl-1H-pyrazole-4-carboxylic acid {1-[2-(2,4,6-trichlorophenyl)-cyclopropyl]-ethyl}-methoxy-amide] | ≥ 80% | ≥ 80% | ≥ 80% | ≥ 80% | ≥ 80% | ≥ 80% | ≥ 80% | ≥ 80% | ≥ 80% |
| 142 to 144 °C | CON(C(=O)c1cn(C)nc1C(F)F)C(C)C1CC1c1ccc(Cl)cc1Cl (single isomer, unassigned) [Compound 1.018B, trans-3-difluoromethyl-1-methyl-1H-pyrazole-4-carboxylic acid {1-[2-(2,4-dichlorophenyl)-cyclopropyl]-ethyl}-methoxy-amide] | – | – | – | – | – | – | – | – | – |
| – | CON(C(=O)c1cn(C)nc1C(F)F)C(C)C1CC1c1c(Cl)cccc1Cl (stereo not drawn) [Compound 1.028, trans-3-difluoromethyl-1-methyl-1H-pyrazole-4-carboxylic acid {1-[2-(2,6-dichlorophenyl)-cyclopropyl]-ethyl}-methoxy-amide] | ≥ 80% | ≥ 80% | ≥ 80% | ≥ 80% | ≥ 80% | ≥ 80% | ≥ 80% | ≥ 80% | ≥ 80% |
| – | CON(C(=O)c1cn(C)nc1C(F)F)C(C)C1CC1c1ccc(Cl)cc1Cl (stereo not drawn) [Compound 1.018A, trans-3-difluoromethyl-1-methyl-1H-pyrazole-4-carboxylic acid {1-[2-(2,4-dichlorophenyl)-cyclopropyl]-ethyl}-methoxy-amide] | ≥ 80% | ≥ 80% | ≥ 80% | ≥ 80% | ≥ 80% | ≥ 80% | ≥ 80% | – | – |
| – | CON(C(=O)c1cn(C)nc1C(F)F)C(C)C1CC1c1c(F)cccc1Cl (stereo not drawn) [Compound 1.027, trans 3-difluoromethyl-1-methyl-1H-pyrazole-4-carboxylic acid{1-[2-(2-chloro-6-fluoro-phenyl)-cyclopropyl]-ethyl}-methoxy-amide] | ≥ 80% | ≥ 80% | ≥ 80% | ≥ 80% | ≥ 80% | ≥ 80% | ≥ 80% | ≥ 80% | – |
